These results are taken from US10167279B2 (NOVARTIS AG, priority 2014, dated 2019).

The structures appear in SMILES notation.

What is called IC50 is the midpoint of a concentration-inhibition curve. A higher IC50 goes with weaker potency in that assay.

Chain of C-Raf FL (P04049 whole entry Y340E/Y341E): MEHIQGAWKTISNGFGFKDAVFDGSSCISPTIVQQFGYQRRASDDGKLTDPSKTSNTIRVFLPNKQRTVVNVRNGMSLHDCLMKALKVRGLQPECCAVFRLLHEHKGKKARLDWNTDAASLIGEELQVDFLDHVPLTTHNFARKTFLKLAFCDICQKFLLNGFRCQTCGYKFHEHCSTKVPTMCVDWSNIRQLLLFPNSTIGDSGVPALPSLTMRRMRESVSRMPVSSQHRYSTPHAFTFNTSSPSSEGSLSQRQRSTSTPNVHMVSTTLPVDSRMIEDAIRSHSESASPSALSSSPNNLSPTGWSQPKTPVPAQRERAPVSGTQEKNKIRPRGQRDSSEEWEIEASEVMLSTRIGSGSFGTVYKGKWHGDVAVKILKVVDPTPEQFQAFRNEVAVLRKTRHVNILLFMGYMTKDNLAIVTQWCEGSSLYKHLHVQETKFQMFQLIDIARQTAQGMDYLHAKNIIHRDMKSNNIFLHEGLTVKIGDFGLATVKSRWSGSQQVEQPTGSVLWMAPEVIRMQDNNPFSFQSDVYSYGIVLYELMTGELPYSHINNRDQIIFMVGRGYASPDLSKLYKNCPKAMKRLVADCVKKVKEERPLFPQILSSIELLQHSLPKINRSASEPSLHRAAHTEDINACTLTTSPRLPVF
Chain of C-Raf FL (P63104 whole entry partner): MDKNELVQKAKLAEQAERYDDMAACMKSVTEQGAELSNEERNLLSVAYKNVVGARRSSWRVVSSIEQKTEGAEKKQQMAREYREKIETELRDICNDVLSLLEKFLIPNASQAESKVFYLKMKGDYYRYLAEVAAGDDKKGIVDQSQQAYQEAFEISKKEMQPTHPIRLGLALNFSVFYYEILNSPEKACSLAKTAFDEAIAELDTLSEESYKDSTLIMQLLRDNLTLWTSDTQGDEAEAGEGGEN

This assay concerns the target C-Raf FL (Homo sapiens (Human), UniProt P04049, Y340E/Y341E). Nature of the assay: In vitro Raf activity determination (Alpha Screen, phospho-MEK), C-Raf FL (full length, Y340E/Y341E). The format is biochemical. Particulars: ATP 1 μM; 60 min pre-incubation; 1 hour reaction; column head does not say FL or TR. From the text: The activity of a compound according to the present invention can be assessed by well-known in vitro & in vivo methods. Raf inhibition data provided herein was obtained using the following procedures.
Sf9 cells co-expressing both proteins were lysed and subjected to immobilized nickel chromatography and eluted with Imidazole. A second column (StrepII binding column) was used and eluted with desthiobiotin. Protein Tags were removed using Prescission enzyme and the protein was further purified using a flowthrough step to remove tags.
C-Raf TR refers to a truncated C-Raf protein, a Δ1-324 deletion mutant. C-Raf FL refers to the full-length C-Raf protein.
Full length MEK1 with an inactivating K97R ATP binding site mutation is utilized as a RAF substrate. The MEK1 cDNA was subcloned with an N-terminal (his)6 tag into a vector for E. Coli expression. The MEK1 substrate was purified from E. Coli lysate by nickel affinity chromatography followed by anion exchange. The final MEK1 preparation was biotinylated (Pierce EZ-Link Sulfo-NHS-LC-Biotin) and concentrated.
Assay protocol: Raf and biotinylated Mek (kinase dead) were combined at 2× final concentrations in assay buffer (50 mM Tris, pH 7.5, 15 mM MgCl2, 0.01% BSA and 1 mM DTT) and dispensed […] per well in assay plates (Greiner white 384 well assay plates #781207) containing […] of 40× of a Raf kinase inhibitor test compound diluted in 100% DMSO. The plate was incubated for 60 minutes at room temperature. […] The reactions were stopped and the phosphorylated product was measured using a rabbit anti-p-MEK (Cell Signaling, #9121) antibody and the Alpha Screen IgG (ProteinA) detection Kit (PerkinElmer #6760617R), by the addition of […] to the well of a mixture of the antibody (1:2000 dilution) and detection beads (1:2000 dilution of both beads) in Stop/bead buffer (25 mM EDTA, 50 mM Tris, pH 7.5, 0.01% Tween20). The additions were carried out under dark conditions to protect the detection beads from light. A lid was placed on top of the plate and incubated for 1 hour at room temperature, after which the luminescence was read on a PerkinElmer Envision instrument. The concentration of each compound for 50% inhibition (IC50) was calculated by non-linear regression using XL Fit data analysis software.
With `Cc1ncc(NC(=O)c2cccc(C(F)(F)F)c2)cc1-c1cc(OCCO)nc(C2(CF)COC2)c1` [Example 132, N-(2′-(3-(fluoromethyl)oxetan-3-yl)-6′-(2-hydroxyethoxy)-2-methyl-[3,4′-bipyridin]-5-yl)-3-(trifluoromethyl)benzamide], the IC50 turned out to be 0.0853 nM.
The molecule `Cc1ncc(NC(=O)c2ccnc(C(C)(C)F)c2)cc1-c1cc(OCCO)nc(C2(CF)COC2)c1` [Example 133, N-(2′-(3-(fluoromethyl)oxetan-3-yl)-6′-(2-hydroxyethoxy)-2-methyl-[3,4′-bipyridin]-5-yl)-2-(2-fluoropropan-2-yl)isonicotinamide] came in with an IC50 of 1.28 nM.
Consider `Cc1ccc(NC(=O)c2cccc(C(F)(F)F)c2)cc1-c1cc(C2(O)COC2)cc(C2(F)COC2)c1` [Example 134, N-(3′-(3-fluorooxetan-3-yl)-5′-(3-hydroxyoxetan-3-yl)-6-methyl-[1,1′-biphenyl]-3-yl)-3-(trifluoromethyl)benzamide], for which the half-inhibitory concentration (IC50) was 0.566 nM.
As for `Cc1ccc(NC(=O)c2ccnc(C(F)(F)F)c2)cc1-c1cc(C2(O)COC2)cc(C2(F)COC2)c1` [Example 135, N-(3′-(3-fluorooxetan-3-yl)-5′-(3-hydroxyoxetan-3-yl)-6-methyl-[1,1′-biphenyl]-3-yl)-2-(trifluoromethyl)isonicotin-amide], the figure is 0.605 nM; as for `Cc1ccc(NC(=O)c2ccnc(C(C)(F)F)c2)cc1-c1cc(C2(O)COC2)cc(C2(F)COC2)c1` [Example 136, 2-(1,1-difluoroethyl)-N-(3′-(3-fluorooxetan-3-yl)-5′-(3-hydroxyoxetan-3-yl)-6-methyl-[1,1′-biphenyl]-3-yl)isonicotinamide], 0.177 nM.
In turn, `Cc1ccc(NC(=O)c2ccnc(C(C)(C)F)c2)cc1-c1cc(C2(O)COC2)cc(C2(F)COC2)c1` [Example 137, N-(3′-(3-fluorooxetan-3-yl)-5′-(3-hydroxyoxetan-3-yl)-6-methyl-[1,1′-biphenyl]-3-yl)-2-(2-fluoropropan-2-yl)isonicotinamide] yielded an IC50 of 3.32 nM.
The value for `Cc1ccc(NC(=O)c2ccnc(C(C)(C)C#N)c2)cc1-c1cc(C2(O)COC2)cc(C2(F)COC2)c1` [Example 138, 2-(2-cyanopropan-2-yl)-N-(3′-(3-fluorooxetan-3-yl)-5′-(3-hydroxyoxetan-3-yl)-6-methyl-[1,1′-biphenyl]-3-yl)isonicotinamide] was 2.19 nM.
Take `Cc1ncc(NC(=O)c2cccc(C(F)(F)F)c2)cc1-c1cc(C2(O)COC2)cc(C2(F)COC2)c1` [Example 139, N-(5-(3-(3-fluorooxetan-3-yl)-5-(3-hydroxyoxetan-3-yl)phenyl)-6-methylpyridin-3-yl)-3-(trifluoromethyl)benzamide]: half-maximal inhibition (IC50) was put at 1.18 nM.
With `Cc1ncc(NC(=O)c2ccnc(C(C)(F)F)c2)cc1-c1cc(C2(O)COC2)cc(C2(F)COC2)c1` [Example 141, 2-(1,1-difluoroethyl)-N-(5-(3-(3-fluorooxetan-3-yl)-5-(3-hydroxyoxetan-3-yl)phenyl)-6-methylpyridin-3-yl)isonicotinamide], the half-inhibitory concentration (IC50) came to 5.9 nM.
The value for `Cc1ncc(NC(=O)c2ccnc(C(C)(C)F)c2)cc1-c1cc(C2(O)COC2)cc(C2(F)COC2)c1` [Example 142, N-(5-(3-(3-fluorooxetan-3-yl)-5-(3-hydroxyoxetan-3-yl)phenyl)-6-methylpyridin-3-yl)-2-(2-fluoropropan-2-yl)isonicotinamide] was 11.2 nM.
Consider `Cc1ncc(NC(=O)c2ccnc(C(C)(C)C#N)c2)cc1-c1cc(C2(O)COC2)cc(C2(F)COC2)c1` [Example 143, 2-(2-cyanopropan-2-yl)-N-(5-(3-(3-fluorooxetan-3-yl)-5-(3-hydroxyoxetan-3-yl)phenyl)-6-methylpyridin-3-yl)isonicotinamide], for which half-maximal inhibition (IC50) required 4.36 nM.
In the case of `CCOc1ncc(-c2cc(NC(=O)c3cc(C(F)(F)F)cc(C(C)(C)N)n3)ccc2C)cc1C1(O)COC1` [Example 147, 6-(2-aminopropan-2-yl)-N-(3-(6-ethoxy-5-(3-hydroxyoxetan-3-yl)pyridin-3-yl)-4-methylphenyl)-4-(trifluoromethyl)picolin-amide], 4.51 nM corresponded to half-maximal inhibition (IC50).
In turn, `COc1ncc(-c2cc(NC(=O)c3cc(C(F)(F)F)cc(C(C)(C)N)n3)cnc2C)cc1C1(C(F)F)COC1` [Example 148, 6-(2-aminopropan-2-yl)-N-(5′-(3-(difluoromethyl)oxetan-3-yl)-6′-methoxy-2-methyl-[3,3′-bipyridin]-5-yl)-4-(trifluoromethyl)picolin-amide] registered an IC50 of 9.2 nM.
The molecule `COc1ncc(-c2cc(NC(=O)c3cc(C(F)(F)F)cc(C(C)(C)N)n3)ccc2C)cc1C1(C(F)F)COC1` [Example 149, 6-(2-aminopropan-2-yl)-N-(3-(5-(3-(difluoromethyl)oxetan-3-yl)-6-methoxypyridin-3-yl)-4-methylphenyl)-4-(trifluoromethyl)picolin-amide] registered an IC50 of 0.871 nM.
`COc1ncc(-c2cc(C(=O)Nc3cc(C(C)(C)N)cc(C(F)(F)F)c3)ccc2C)cc1C1(O)COC1` [Example 150, N-(3-(2-aminopropan-2-yl)-5-(trifluoromethyl)phenyl)-3-(5-(3-hydroxyoxetan-3-yl)-6-methoxypyridin-3-yl)-4-methylbenzamide] showed an IC50 of 3 nM.
For `COC1(c2cc(-c3cc(NC(=O)c4cccc(C(F)(F)F)c4)cnc3C)cc(NCCO)n2)COC1` [Example 152, N-(2′-((2-hydroxyethyl)amino)-6′-(3-methoxyoxetan-3-yl)-2-methyl-[3,4′-bipyridin]-5-yl)-3-(trifluoromethyl)benzamide], the IC50 came to 0.08 nM.
The value for `COC1(c2cc(-c3cc(NC(=O)c4cccc(C(F)(F)F)c4)ccc3C)cc(NCCO)n2)COC1` [Example 153, N-(3-(2-((2-hydroxyethyl)amino)-6-(3-methoxyoxetan-3-yl)pyridin-4-yl)-4-methylphenyl)-3-(trifluoromethyl)benzamide] was 0.04 nM; that for `COC1(c2cc(-c3cc(NC(=O)c4cc(C(F)(F)F)ccn4)ccc3C)cc(NCCO)n2)COC1` [Example 154, N-(3-(2-((2-hydroxyethyl)amino)-6-(3-methoxyoxetan-3-yl)pyridin-4-yl)-4-methylphenyl)-4-(trifluoromethyl)picolin-amide] was 0.04 nM.
Molecule `COC1(c2cc(-c3cc(NC(=O)c4ccnc(C(F)(F)F)c4)ccc3C)cc(OCCO)n2)COC1` [Example 157, N-(3-(2-(2-hydroxyethoxy)-6-(3-methoxyoxetan-3-yl)pyridin-4-yl)-4-methylphenyl)-2-(trifluoromethyl)isonicotin-amide] had an IC50 of 0.3 nM.
As for `COC1(c2cc(-c3cc(NC(=O)c4ccnc(C(F)F)c4)ccc3C)cc(OCCO)n2)COC1` [Example 158, 2-(difluoromethyl)-N-(3-(2-(2-hydroxyethoxy)-6-(3-methoxyoxetan-3-yl)pyridin-4-yl)-4-methylphenyl)isonicotin-amide], the midpoint of inhibition, the IC50, lay at 0.4 nM.
In the case of `COC1(c2cc(-c3cc(NC(=O)c4cccc(C(F)(F)F)c4)cnc3C)cc(OCCO)n2)COC1` [Example 160, N-(2′-(2-hydroxyethoxy)-6′-(3-methoxyoxetan-3-yl)-2-methyl-[3,4′-bipyridin]-5-yl)-3-(trifluoromethyl)benzamide], the IC50 worked out at 0.7 nM.
On to `CCOc1ncc(-c2cc(NC(=O)c3cnnc(C(C)(C)C#N)c3)cnc2C)cc1C1CCOCC1` [Example 161], for which the IC50 worked out at 2 nM.
`Cc1ccc(NC(=O)c2ccnc(C(F)(F)F)c2)cc1-c1cc(OCCO)nc(C2CCOCC2O)c1` (centres unmarked) [Example 162, N-(3-(2-(2-hydroxyethoxy)-6-(3-hydroxytetrahydro-2H-pyran-4-yl)pyridin-4-yl)-4-methylphenyl)-2-(trifluoromethyl)isonicotinamide]: it took 1 nM to reach half-maximal inhibition (IC50).
`CCOc1ncc(-c2cc(NC(=O)c3cnnc(C(F)(F)F)c3)cnc2C)cc1C1CCOCC1` [Example 163, N-(6′-ethoxy-2-methyl-5′-(tetrahydro-2H-pyran-4-yl)-[3,3′-bipyridin]-5-yl)-6-(trifluoromethyl) pyridazine-4-carboxamide] had an IC50 of 0.3 nM.
Take `CCOc1ncc(-c2cc(NC(=O)c3ccnc(C(C)(C)C#N)c3)cnc2C)cc1C1CCOCC1` [Example 164, 2-(2-cyanopropan-2-yl)-N-(6′-ethoxy-2-methyl-5′-(tetrahydro-2H-pyran-4-yl)-[3,3′-bipyridin]-5-yl)isonicotinamide]: the IC50 is 0.4 nM.
Consider `CCOc1ncc(-c2cc(NC(=O)c3ccnc(C(C)(C)F)c3)cnc2C)cc1C1(CF)CCOC1` (centres unmarked) [Example 165, N-(6′-ethoxy-5′-(3-(fluoromethyl)tetrahydrofuran-3-yl)-2-methyl-[3,3′-bipyridin]-5-yl)-2-(2-fluoropropan-2-yl)isonicotinamide], for which the IC50 was 1 nM.
